What was measured:
Experiment in all cases: relative viability (nuclei count vs DMSO), 5 days (fraction); higher = more cells survive
BI-2536 + Crizotinib = compound: CC[C@@H]1C(=O)N(C)c2cnc(Nc3ccc(C(=O)NC4CCN(C)CC4)cc3OC)nc2N1C1CCCC1 [BI-2536] + C[C@@H](Oc1cc(-c2cnn(C3CCNCC3)c2)cnc1N)c1c(Cl)ccc(F)c1Cl [Crizotinib] (partner 1 µM)
Summary of the method: (§1)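 Medians of duplicate plates are given as relative viability. That measure is the nuclei count in treated wells divided by the count in vehicle wells. Counts were taken on 4× images of lung cancer cell lines in 1536-well plates, 5 days after pin-tool dosing the day after seeding with one drug alone or a fixed anchor-drug dose plus five library-drug doses (not always all listed) in √10 steps.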

NPK76-II-72-1 + Olaparib = compound: CC1CC(=O)N(C2=CN=C(N=C2N1C3CCCC3)NC4=C(C=C(C=C4)C(=O)NC5CCN(CC5)C)OC)C [NPK76-II-72-1] + O=C(c1cc(Cc2n[nH]c(=O)c3ccccc23)ccc1F)N1CCN(C(=O)C2CC2)CC1 [Olaparib] (partner 8 µM)
Summary of the method: as §1

BI-2536 + Foretinib = compound: CC[C@@H]1C(=O)N(C)c2cnc(Nc3ccc(C(=O)NC4CCN(C)CC4)cc3OC)nc2N1C1CCCC1 [BI-2536] + COc1cc2c(Oc3ccc(NC(=O)C4(C(=O)Nc5ccc(F)cc5)CC4)cc3F)ccnc2cc1OCCCN1CCOCC1 [Foretinib] (partner 0.25 µM)
Summary of the method: as §1

NPK76-II-72-1 + AZD7762 = compound: CC1CC(=O)N(C2=CN=C(N=C2N1C3CCCC3)NC4=C(C=C(C=C4)C(=O)NC5CCN(CC5)C)OC)C [NPK76-II-72-1] + NC(=O)Nc1cc(-c2cccc(F)c2)sc1C(=O)N[C@H]1CCCNC1 [AZD7762] (partner 0.2 µM)
Summary of the method: as §1

Row | Cell Line | relative viability (BI-2536 + Crizotinib; first compound 0.01 µM) | relative viability (BI-2536 + Crizotinib; first compound 0.03162 µM) | relative viability (BI-2536 + Crizotinib; first compound 0.1 µM) | relative viability (BI-2536 + Crizotinib; first compound 0.3162 µM) | relative viability (BI-2536 + Crizotinib; first compound 1 µM) | relative viability (NPK76-II-72-1 + Olaparib; first compound 0.01 µM) | relative viability (NPK76-II-72-1 + Olaparib; first compound 0.03162 µM) | relative viability (NPK76-II-72-1 + Olaparib; first compound 0.1 µM) | relative viability (NPK76-II-72-1 + Olaparib; first compound 0.3162 µM) | relative viability (NPK76-II-72-1 + Olaparib; first compound 1 µM) | relative viability (BI-2536 + Foretinib; first compound 0.01 µM) | relative viability (BI-2536 + Foretinib; first compound 0.03162 µM) | relative viability (BI-2536 + Foretinib; first compound 0.1 µM) | relative viability (BI-2536 + Foretinib; first compound 0.3162 µM) | relative viability (BI-2536 + Foretinib; first compound 1 µM) | relative viability (NPK76-II-72-1 + AZD7762; first compound 0.01 µM) | relative viability (NPK76-II-72-1 + AZD7762; first compound 0.03162 µM) | relative viability (NPK76-II-72-1 + AZD7762; first compound 0.1 µM) | relative viability (NPK76-II-72-1 + AZD7762; first compound 0.3162 µM) | relative viability (NPK76-II-72-1 + AZD7762; first compound 1 µM)
1 | NCI-H322M | 0.992 | 0.721 | 0.92 | 0.346 | 0.308 | 0.582 | 0.828 | 0.623 | 0.878 | 0.791 | 0.98 | 0.842 | 0.834 | 0.389 | 0.319 | 0.532 | 0.504 | 0.52 | 0.655 | 0.52
2 | NCI-H358 | 0.446 | 0.259 | 0.22 | 0.173 | 0.139 | 0.58 | 0.665 | 0.598 |  | 0.686 | 0.623 | 0.598 | 0.08 | 0.101 | 0.0984 | 0.521 | 0.525 | 0.611 |  | 0.683
3 | NCI-H441 | 0.503 | 0.393 | 0.218 | 0.154 | 0.133 | 0.476 | 0.598 | 0.648 | 0.589 | 0.573 | 0.918 | 0.673 | 0.261 | 0.194 | 0.222 | 1.12 | 1.07 | 1.08 | 1.04 | 1.07
4 | NCI-H460 | 0.966 | 0.842 | 0.0283 | 0.0109 | 0.0112 | 0.441 | 0.457 | 0.514 | 0.426 | 0.455 | 1.11 | 1.06 | 0.147 | 0.0166 | 0.02 | 0.631 | 0.652 | 0.666 | 0.555 | 0.75
5 | NCI-H596 | 0.948 | 1.05 | 0.938 | 0.493 | 0.443 | 0.771 | 0.748 | 0.68 | 0.704 | 0.67 | 0.642 | 0.955 | 0.803 | 0.292 | 0.205 | 1.13 | 1.12 | 1.27 | 1.15 | 1.1
6 | NCI-H647 | 1.15 | 0.418 | 0.425 | 0.113 | 0.115 | 0.633 | 0.48 | 0.755 | 0.46 | 0.661 | 1.35 | 1.16 | 0.649 | 0.101 | 0.128 | 0.4 | 0.476 | 0.578 | 0.434 | 0.379
7 | NCI-H650 | 0.597 | 0.347 | 0.271 | 0.21 | 0.17 | 0.391 | 0.316 | 0.397 | 0.354 | 0.489 | 0.981 | 0.952 | 0.678 | 0.207 | 0.155 | 1.13 | 0.997 | 0.97 | 0.896 | 0.995
8 | NCI-H727 | 0.939 | 0.7 | 0.364 | 0.331 | 0.295 | 0.957 | 0.774 | 0.655 | 0.699 | 0.679 | 0.818 | 0.888 | 0.711 | 0.515 | 0.371 | 0.466 | 0.67 | 0.545 | 0.537 | 0.558
9 | NCI-H838 | 0.886 | 0.711 | 0.232 | 0.156 | 0.114 | 0.712 | 0.846 | 0.768 | 0.738 | 0.805 | 0.953 | 1.06 | 0.636 | 0.145 | 0.134 | 0.826 | 0.961 | 0.947 | 0.912 | 0.976
10 | NCI-H1355 | 1.06 | 1.1 | 0.796 | 0.198 | 0.184 | 0.682 | 0.755 | 0.7 | 0.692 | 0.841 | 0.871 | 0.968 | 0.601 | 0.149 | 0.18 | 0.686 | 0.792 | 0.857 | 0.767 | 0.748
11 | NCI-H1437 | 0.812 | 0.593 | 0.418 | 0.117 | 0.116 | 0.626 | 0.666 | 0.613 | 0.624 | 0.624 | 1.25 | 1.18 | 0.852 | 0.198 | 0.179 | 1.14 | 1.15 | 1.1 | 1.04 | 1.17
12 | NCI-H1651 | 0.85 | 0.889 | 0.81 | 0.358 | 0.101 | 0.186 | 0.168 | 0.185 | 0.168 | 0.171 | 0.628 | 0.776 | 0.536 | 0.0828 | 0.0854 | 0.436 | 0.449 | 0.471 | 0.377 | 0.501
13 | NCI-H1666 | 0.924 | 0.899 | 0.503 | 0.306 | 0.321 | 0.74 | 0.754 | 0.735 | 0.84 | 0.758 | 1.02 | 0.981 | 0.826 | 0.447 | 0.421 | 0.84 | 0.861 | 0.852 | 0.752 | 1.01
14 | NCI-H1703 | 0.626 |  | 0.173 | 0.131 | 0.0732 | 0.473 | 0.54 | 0.381 | 0.33 | 0.431 |  | 0.296 | 0.191 | 0.152 | 0.14 | 0.144 | 0.115 | 0.174 |  | 0.0937
15 | NCI-H1734 | 0.644 | 0.548 | 0.35 | 0.204 | 0.158 | 0.582 | 0.72 | 0.745 | 0.542 | 0.667 | 0.886 | 0.889 | 0.464 | 0.199 | 0.176 | 0.531 | 0.557 | 0.676 | 0.532 | 0.667
16 | NCI-H1755 | 0.893 | 0.751 | 0.594 | 0.315 | 0.25 | 0.858 | 0.915 | 0.888 | 0.827 | 0.893 | 0.949 | 0.819 | 0.618 | 0.27 | 0.292 | 0.356 | 0.468 | 0.431 | 0.464 | 0.436
